Source: patent US10364263B2, “Cyclic phosphates and cyclic phosphoramidates for the treatment of neurologic disorders” (Retrophin, Inc., priority 2015, dated 2019)
Where two headings read alike, the source gives them in different places.

What was measured:
[1] = test system: PANK2 silenced human neuroblastoma IMR32 cells (PANK2−/−); test: Coenzyme A assay in PANK2 silenced cells (LC-MS quantification of free CoA); assay type: cell-based; conditions: compound added twice (24 h + 24 h), relative to 0.1% DMSO controls
Summary of the method: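 Free intracellular CoA was measured by positive-mode LC-MS/MS of 20% TFA extracts, taking 2 μl per 10^6 cells as intracellular volume. Cells were IMR32 with stable lentiviral PANK2 knockdown, dosed twice 24 h apart (48 h total, 0.1% DMSO). Output is fold increase over vehicle.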

[2] = Stability in mouse plasma; assay type: in vitro ADME
Experimental: Compounds and positive control samples were dissolved in 100% DMSO at 3 mM. To investigate the stability of the test compounds in plasma, samples were made by diluting test compounds into plasma from the stock solutions to obtain a test compound concentration of 3 μM (0.1% DMSO). Before addition of a test compound, 990 μl of plasma were preincubated at 37° C. for 5 min in eppendorf. After addition of a test compound, 70 μl for each time point were transferred to a 96-deepwell plate, previously warmed at 37° C. in a DUBNOFF water bath. Each compound was tested at five time points, in duplicate (10, 20, 30, 40 and 60 min). At each time point, an aliquot of 50 μl was taken and transferred to a new 96-deepwell plate, and the reaction was stopped with 200 μl of 100% acetonitrile containing 0.1% formic acid and the appropriate internal standard. Then samples were centrifuged at 1100×g for 30 min at +4° C. and supernatants were transferred to a new 96-deepwell plate. Samples were evaporated under N2 and reconstituted in H2O/ACN 0.1% Formic Acid (98:2). Analysis was performed without a calibration curve (Acquity UPLC-Waters; SciexAPI4000). Time 0 was obtained by adding acetonitrile before addition of the test compound.

[3] = Stability in human plasma; assay type: in vitro ADME; conditions: 37° C.
Summary of the method: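 Test compound at 3 μM (0.1% DMSO) was incubated in mouse or human plasma at 37 °C and sampled in duplicate at 0, 10, 20, 30, 40 and 60 min. Reactions were stopped with acetonitrile/formic acid containing internal standard. Remaining parent was measured by UPLC-MS/MS without a calibration curve.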

[4] = Stability in mouse hepatocytes; assay type: in vitro ADME
Experimental: (§1) Stability in hepatocytes for select compounds disclosed in the application was evaluated in two species (mouse and human) according to the following procedure. Compounds and positive control samples were dissolved in 100% DMSO at 5 mM. Cryopreserved hepatocytes were thawed and resuspended in Hepatocyte Basal Medium (HBM-Lonza CC-3199) supplemented with CC-4182 (complete hepatocyte culture medium). Test compounds were diluted into cell suspension (1 million cells/ml) from the stock solutions to have a test compound concentration of 5 μM (0.1% DMSO). Incubation was performed in 24-well plates, at 37° C. in a DUBNOFF water bath, under low shaking. Each compound was tested at 6 time points, in duplicates (0, 15, 30, 60, 120 and 240 min). At each time point, an aliquot of 120 μl was taken and transferred to a 96-well deep plate. The reaction was stopped with the addition of one volume of 100% acetonitrile plus 0.1% formic acid and the appropriate internal standard. Then samples were centrifuged at 1100×g for 30 min at +4° C. and supernatants were transferred to a new 96-deepwell plate. Samples were evaporated under N2 and reconstituted in H2O/ACN 0.1% Formic Acid (98:2). Analysis was performed without a calibration curve (Acquity UPLC-Waters; Sciex API4000). Time 0 was obtained adding acetonitrile before addition of the test compound. […] The half-life (t1/2) expressed in hours is derived using Equation 1 as shown in Example 64.

[5] = Stability in human hepatocytes; assay type: in vitro ADME
Experimental: as §1

[6] = Diastereoisomer A (upfield shift in 31P NMR), 5 μM, 1 million cells/ml, 37° C., human hepatocytes, read-out: t1/2, Human Hepatocytes, Diastereoisomer A (converted)
[7] = Diastereoisomer B, 5 μM, 1 million cells/ml, 37° C., human hepatocytes, read-out: t1/2, Human Hepatocytes, Diastereoisomer B (converted)
[8] = t1/2, Mouse Hepatocytes, Diastereoisomer A
[9] = t1/2, Mouse Hepatocytes, Diastereoisomer B
[10] = t1/2, Human Hepatocytes, Diastereoisomer A
[11] = t1/2, Human Hepatocytes, Diastereoisomer B
[12] = human, plasma, Diastereoisomer A (upfield shift in 31P NMR), read-out: t1/2, Human Plasma, Diastereoisomer A (converted)
[13] = human, plasma, Diastereoisomer B, read-out: t1/2, Human Plasma, Diastereoisomer B (converted)

Question: Which results are given for `COC(=O)CCNC(=O)[C@@H]1OP(=O)(NCC(=O)OCc2ccccc2)OCC1(C)C` (stereo partly drawn) [compound 118, methyl 3-((4R)-2-((2-(benzyloxy)-2-oxoethyl)amino)-5,5-dimethyl-2-oxido-1,3,2-dioxaphosphinane-4-carboxamido) propanoate]?
Answer: PANK2−/− CoA (Fold Increase): fold increase in Coenzyme A (CoA) levels relative to controls [1]: 2.96 Fold Increase; half-life at 3 µM ([2]; Diastereoisomer A (upfield shift in 31P NMR), 3 μM, 37° C., mouse plasma, read-out: t1/2, Mouse Plasma, Diastereoisomer A): < 9.6 min; t1/2, Mouse Plasma, Diastereoisomer B ([2]; Diastereoisomer B, 3 μM, 37° C., mouse plasma): <9.6 min; half-life at 3 µM ([3]; Diastereoisomer A (upfield shift in 31P NMR), read-out: t1/2, Human Plasma, Diastereoisomer A (converted)): > 60 min; t1/2, Human Plasma, Diastereoisomer B ([3]; Diastereoisomer B, 3 μM): >60 min; half-life at 5 µM ([4]; Diastereoisomer A (upfield shift in 31P NMR), 5 μM, 1 million cells/ml, 37° C., mouse hepatocytes, read-out: t1/2, Mouse Hepatocytes, Diastereoisomer A (converted)): < 15 min; half-life at 5 µM ([4]; Diastereoisomer B, 5 μM, 1 million cells/ml, 37° C., mouse hepatocytes, read-out: t1/2, Mouse Hepatocytes, Diastereoisomer B (converted)): < 15 min; half-life [5, 6]: 25.8 min; half-life [5, 7]: < 15 min

Question: For `COC(=O)CCNC(=O)[C@@H]1OP(=O)(Oc2ccc(F)cc2)OCC1(C)C` (stereo partly drawn) [2-118, methyl 3-((4R)-2-(4-fluorophenoxy)-5,5-dimethyl-2-oxido-1,3,2-dioxaphosphinane-4-carboxamido)propanoate], which “PANK2−/− CoA (Fold Increase): fold increase in Coenzyme A (CoA) levels relative to controls” value [1] is on record?
Answer: 1.38 Fold Increase

Question: And the half-life at 5 µM [5, 6]?
Answer: 33 min

Question: And the half-life at 5 µM [5, 7]?
Answer: 36 min

Question: What does the source list for `COC(=O)CCNC(=O)[C@@H]1OP(=O)(OCOC(C)=O)OCC1(C)C` (stereo partly drawn) [Compound No. 68, Methyl 3-((4R)-2-(acetoxymethoxy)-5,5-dimethyl-2-oxido-1,3,2-dioxaphosphinane-4-carboxamido)propanoate]?
Answer: PANK2−/− CoA (Fold Increase): fold increase in Coenzyme A (CoA) levels relative to controls [1]: 125.97 Fold Increase; half-life at 5 µM [4, 8]: < 15 min; half-life at 5 µM [4, 9]: < 15 min; half-life at 5 µM [5, 10]: < 15 min; half-life at 5 µM [5, 11]: < 15 min

Question: With `COC(=O)CCNC(=O)[C@@H]1OP(=O)(OCOC(=O)c2ccns2)OCC1(C)C` (stereo partly drawn) [Compound No. 2-140, (((4R)-4-((3-methoxy-3-oxopropyl)carbamoyl)-5,5-dimethyl-2-oxido-1,3,2-dioxaphosphinan-2-yl)oxy)methyl isothiazole-5-carboxylate] as the compound, how does the “PANK2−/− CoA (Fold Increase): fold increase in Coenzyme A (CoA) levels relative to controls” value [1] read?
Answer: 37.02 Fold Increase

Question: And the half-life at 5 µM [5, 10]?
Answer: < 15 min

Question: What about the half-life at 5 µM [5, 11] of the same compound?
Answer: < 15 min

Question: Which results are given for `COC(=O)[C@H](C)N[P@@]1(=O)OCC(C)(C)[C@H](C(=O)NCCC(=O)OCc2cn(C)cn2)O1` [compound 22, methyl ((2R,4R)-5,5-dimethyl-4-((3-((1-methyl-1H-imidazol-4-yl)methoxy)-3-oxopropyl)carbamoyl)-2-oxido-1,3,2-dioxaphosphinan-2-yl)-L-alaninate]?
Answer: half-life at 5 µM [4, 8]: 37.2 min; half-life at 5 µM [5, 10]: > 240 min

Question: With `COC(=O)CCNC(=O)[C@@H]1O[P@](=O)(OCOC(=O)NCCOC(=O)[C@@H](NC(=O)OCc2ccccc2)C(C)C)OCC1(C)C` (single isomer, unassigned) [2-161] as the compound, how does the “PANK2−/− CoA (Fold Increase): fold increase in Coenzyme A (CoA) levels relative to controls” value [1] read?
Answer: 71.14 Fold Increase

Question: And the half-life at 5 µM [4, 8]?
Answer: < 15 min

Question: And the half-life at 5 µM [5, 10]?
Answer: 25.8 min

Question: What does the source list for `COC(=O)CCNC(=O)[C@@H]1O[P@@](=O)(Oc2ccc(C(F)(F)F)cc2)OCC1(C)C` [2-119, methyl 3-((2S,4R)-5,5-dimethyl-2-oxido-2-(4-(trifluoromethyl)phenoxy)-1,3,2-dioxaphosphinane-4-carboxamido)propanoate]?
Answer: PANK2−/− CoA (Fold Increase): fold increase in Coenzyme A (CoA) levels relative to controls [1]: 1.67 Fold Increase; half-life at 5 µM [5, 6]: 30.6 min

Question: What does the source list for `COC(=O)[C@H](C)NP1(=O)OCC(C)(C)[C@H](C(=O)NCCC(=O)OCc2cc(C)on2)O1` (stereo partly drawn) [compound 21, (2S)-methyl 2-(((4R)-5,5-dimethyl-4-((3-((5-methylisoxazol-3-yl)methoxy)-3-oxopropyl)carbamoyl)-2-oxido-1,3,2-dioxaphosphinan-2-yl)amino)propanoate]?
Answer: half-life at 5 µM [4, 8]: < 15 min; half-life at 5 µM [4, 9]: < 15 min; half-life at 5 µM [5, 10]: 70.8 min; half-life at 5 µM [5, 11]: 40.2 min

Question: For `COC(=O)CCNC(=O)[C@@H]1O[P@@](=O)(OCOC(=O)NCCOC(=O)[C@@H](NC(=O)OCc2ccccc2)C(C)C)OCC1(C)C` (single isomer, unassigned) [2-160], which “PANK2−/− CoA (Fold Increase): fold increase in Coenzyme A (CoA) levels relative to controls” value [1] is on record?
Answer: 7.99 Fold Increase

Question: What about the half-life at 5 µM [4, 8] of the same compound?
Answer: < 15 min

Question: What about the half-life at 5 µM [5, 10] of the same compound?
Answer: 36.6 min

Question: Which results are given for `COC(=O)CCNC(=O)[C@@H]1OP(=O)(OCOC(=O)c2scnc2C)OCC1(C)C` (stereo partly drawn) [Compound No. 2-139, (((4R)-4-((3-methoxy-3-oxopropyl)carbamoyl)-5,5-dimethyl-2-oxido-1,3,2-dioxaphosphinan-2-yl)oxy)methyl 4-methylthiazole-5-carboxylate]?
Answer: PANK2−/− CoA (Fold Increase): fold increase in Coenzyme A (CoA) levels relative to controls [1]: 44.21 Fold Increase; half-life at 5 µM [5, 10]: 30.6 min; half-life at 5 µM [5, 11]: 15.6 min

Question: For `COC(=O)CCNC(=O)[C@@H]1OP(=O)(OCOC(=O)NCCSC(=O)C(C)(C)C)OCC1(C)C` (stereo partly drawn) [2-143, methyl 3-((4R)-5,5-dimethyl-2-oxido-2-((((2-(pivaloylthio)ethyl)carbamoyl)oxy)methoxy)-1,3,2-dioxaphosphinane-4-carboxamido)propanoate], which “PANK2−/− CoA (Fold Increase): fold increase in Coenzyme A (CoA) levels relative to controls” value [1] is on record?
Answer: 1.39 Fold Increase

Question: And the half-life at 5 µM [5, 10]?
Answer: 25.2 min

Question: What about the half-life at 5 µM [5, 11] of the same compound?
Answer: 19.2 min

Question: Which “PANK2−/− CoA (Fold Increase): fold increase in Coenzyme A (CoA) levels relative to controls” value [1] does the source give for `CC(C)(C)OC(=O)CCNC(=O)[C@@H]1OP(=O)(OCOC(=O)C(C)(C)C)OCC1(C)C` (stereo partly drawn) [Compound No. 75, (((4R)-4-((3-(tert-butoxy)-3-oxopropyl)carbamoyl)-5,5-dimethyl-2-oxido-1,3,2-dioxaphosphinan-2-yl)oxy)methyl pivalate] here?
Answer: 1.52 Fold Increase

Question: What about the half-life at 3 µM ([2]; mouse, plasma) of the same compound?
Answer: < 9.6 min

Question: What about the “t1/2, Mouse Plasma, Diastereoisomer B” value ([2]; mouse, plasma, 3 µM) of the same compound?
Answer: <9.6 min

Question: What about the half-life at 3 µM [3, 12] of the same compound?
Answer: > 60 min

Question: And the half-life at 3 µM [3, 13]?
Answer: < 9.6 min

Question: Which “PANK2−/− CoA (Fold Increase): fold increase in Coenzyme A (CoA) levels relative to controls” value [1] does the source give for `Cc1cc(COC(=O)CCNC(=O)[C@@H]2OP(=O)(N[C@@H](C)C(=O)OCCc3ccccc3)OCC2(C)C)no1` (stereo partly drawn) [compound 40, (5-methylisoxazol-3-yl)methyl 3-((4R)-5,5-dimethyl-2-oxido-2-(((S)-1-oxo-1-phenethoxypropan-2-yl)amino)-1,3,2-dioxaphosphinane-4-carboxamido)propanoate] here?
Answer: 2.77 Fold Increase

Question: What about the half-life at 3 µM ([2]; mouse, plasma) of the same compound?
Answer: < 9.6 min

Question: What about the “t1/2, Mouse Plasma, Diastereoisomer B” value ([2]; mouse, plasma, 3 µM) of the same compound?
Answer: <9.6 min

Question: And the half-life at 3 µM [3, 12]?
Answer: > 60 min

Question: And the half-life at 3 µM [3, 13]?
Answer: > 60 min

Question: With `CC(C)(C)C(=O)OCO[P@@]1(=O)OCC(C)(C)[C@H](C(=O)NCCC(=O)OCc2cncs2)O1` (single isomer, unassigned) [Compound No. 79] as the compound, how does the “PANK2−/− CoA (Fold Increase): fold increase in Coenzyme A (CoA) levels relative to controls” value [1] read?
Answer: 133.6 Fold Increase

Question: And the half-life at 3 µM ([2]; mouse, plasma)?
Answer: < 9.6 min

Question: And the “t1/2, Mouse Plasma, Diastereoisomer B” value ([2]; mouse, plasma, 3 µM)?
Answer: <9.6 min

Question: What about the half-life at 3 µM [3, 12] of the same compound?
Answer: > 60 min

Question: And the half-life at 3 µM [3, 13]?
Answer: < 9.6 min

Question: With `CC(C)(C)C(=O)OCO[P@@]1(=O)OCC(C)(C)[C@H](C(=O)NCCC(=O)OCCc2ccccn2)O1` (single isomer, unassigned) [Compound No. 82] as the compound, how does the “PANK2−/− CoA (Fold Increase): fold increase in Coenzyme A (CoA) levels relative to controls” value [1] read?
Answer: 99.82 Fold Increase

Question: And the half-life at 3 µM ([2]; mouse, plasma)?
Answer: < 9.6 min

Question: And the half-life at 3 µM [3, 12]?
Answer: 28.8 min
